In brackets after ≈: the same amount, converted by molar mass.
Legend:
[1] = parameters: method as in PMID 23603295; conditions: previous studies; cited from earlier work
[2] = tested on: tyrosine hydroxylase (TH); assay: Western blot of tyrosine hydroxylase in lesioned substantia nigra; assay type: in vivo, rat; conditions: 6-OHDA-lesioned rats, 6 weeks
Procedure: (§1) The damage of rat dopaminergic neurons was assessed by apomorphine (APO, Sigma)‐induced rotation tests at the 5th, 8th, and 11th weeks of experiment.[17] […] The dosages of PIP used in the present study were safe for rats.[21] Rats were treated once a day for 6 weeks. The 6‐OHDA group and sham group were treated with the same volume of substrate solution (0.5% CMC‐Na).
The left substantia nigra (SN) of rat was lysed using non‐denaturing lysis buffer, and immunoblotting was performed following the reported protocol.[19] Protein homogenates were subjected to Western blot analysis using antibodies against tyrosine hydroxylase (TH, 1:1000, Sigma) and GAPDH (1:2000, Proteintech). The blots were visualized by a NcmECL Ultra Western blot diction kit (NCM Biotech), and densitometry was analyzed by using the Fusion FX Image system (Vilber Lourmat).

[3] = L-dopa conversion rate in rat whole blood and tissue homogenates in vitro; assay type: in vitro ADME; conditions: L-dopa 0.3 mM + PIP 10 or 20 μg/mL, 12 and 24 h, vs L-dopa alone
Procedure: (§2) The column was maintained at 40°C.
(§3) The whole blood, colon contents, jejunum, and brain tissues of SD rats (n = 6) were collected. Colonic contents were pooled and suspended in anaerobic medium (Aobox) at a ratio of 1:20 (g/mL), the mixtures were centrifuged at 800 g (4°C) for 10 min, and then collected the supernatant for culture. Tissues were pooled and weighed, then homogenized with 5 mM phosphate buffer (pH = 7.4) at the ratio of 1:5 (g/ml). […] The intestinal bacterial cultures were incubated in an anaerobic chamber, while tissues or blood incubation systems were incubated at 37°C for 12 and 24 h, and then the incubation was terminated with three‐fold acetonitrile. After centrifugation at 12,000 g for 10 min, the supernatants were collected for HPLC‐FLD analysis.

TDC in E. faecalis = assay: ELISA of TDC specific activity in E. faecalis ATCC29212; assay type: cell-based, Enterococcus faecalis; conditions: PIP 10 or 20 μg/mL, 24 h
Procedure: (§4) The growth control group and negative control group were set. The cultures were incubated at 37°C under an anaerobic environment. The 1 mL of incubation sample and twofold cold acetonitrile were added to terminate the incubation. After centrifugation at 12,000 g for 10 min, the supernatants were collected for HPLC‐FLD analysis.
The bacterial protein was extracted from the culture pellets generated as described above. After being washed with PBS three times, the bacterial pellets were re‐suspended in 400 μL PBS containing 2% ethanol and incubated in ice bath for 30 min. After centrifugation at 1000 g for 10 min, the sediments were collected and lysed using lysis buffer containing 100 μg/mL lysozyme, then centrifuged at 12,000 g for 20 min to collect the supernatants. After determining the protein concentration using the BCA kit (Beyotime), the assay of TDC level in E. faecalis was performed according to the Microorganism TDC Elisa kit (MM‐925239O2, MEIMIAN) guideline. Briefly, the extracted protein samples were added to the coated wells together with the balance solution and HRP conjugate reagent, then incubated at 37°C. […] After adding the stop solution to each well, the optical density was measured at the wavelength of 450 nm. The specific activity of TDC was calculated based on the standard curve. The results are expressed as U/mg protein.

E. faecalis ATCC29212 = assay: L-dopa conversion rate in E. faecalis ATCC29212 culture; assay type: cell-based, Enterococcus faecalis; conditions: 24 h, anaerobic, vs L-dopa alone
Procedure: as §2, §4

TDC [4] = assay: ELISA of TDC specific activity in feces of 6-OHDA-lesioned rats; assay type: in vivo, rat; conditions: 6-OHDA-lesioned rats after 6 weeks of administration; combination vs L-dopa alone
Procedure: (§5) The rat feces were weighed and suspended in lysis buffer. After centrifugation at 800 g for 10 min, the supernatants were collected and added with lysozyme. The mixtures were centrifuged at 12,000 g for 20 min, and the supernatants were obtained for protein concentration determination and the detection of TDC level in rat feces using rat TDC ELISA kit (MM‐71824R1, MEIMIAN). The results are expressed as U/mg protein.

[5] = tested on: intestinal bacteria of SD rats; assay: L-dopa conversion rate in rat intestinal bacteria (feces) culture in vitro; assay type: cell-based; conditions: 24 h, anaerobic, vs L-dopa alone
Procedure: as §2, §3

[6] = tested on: TDC mRNA in E. faecalis ATCC29212; assay: RT-qPCR of TDC gene expression in E. faecalis ATCC29212; assay type: cell-based, Enterococcus faecalis; conditions: PIP 10 or 20 μg/mL, 24 h
Procedure: as §4
Total RNA was extracted from the culture pellets generated in the experiment described above “Incubation of E. faecalis in vitro” using the RNAprep Pure Cell/Bacteria Kit (TIANGEN). A FastQuant RT Kit (with gDNase) (TIANGEN) was used to transcribe RNA to cDNA. After that, RT–qPCR was conducted using 2 × SuperReal PreMix Plus (TIANGEN) and performed on the CFX Connect™ Real‐Time System (Bio–Rad) following the amplification program: 95°C for 15 min, followed by 40 cycles of 95°C for 10 s, 52°C for 31 s, and 72°C for 30 s. The program ended with a final extension at 72°C for 10 min. The relative gene expression was calculated using the 2^−^ΔΔ^Ct method.

[7] = Solubility limit of PIP in the TDC enzyme assay; assay type: physicochemical; conditions: 37 °C, pH 5.5, aqueous buffer
Procedure: (§6) TDC (from E. faecalis NCTC6783, Aladdin; 0.02 mg/mL) and PLP (2 mM, Sigma) were pre‐incubated with various concentrations (0.01–250 μM) of PIP in 0.2 M sodium acetate buffer (pH = 5.5) at 37°C for 15 min. […] After 20 min of incubation, the reaction was quenched by diluting 1:10 in methanol containing 0.7% perchloric acid.[25] The mixture was centrifuged at 12,000 g (4°C) for 5 min, and the supernatant was collected for the determination of DA by HPLC‐ECD.

[8] = target: T1, TDC (from E. faecalis NCTC6783) (Enterococcus faecalis, UniProt P0DTQ4); assay: TDC enzyme assay (DA produced from L-dopa); assay type: biochemical; conditions: 250 μM PIP, L-dopa 0.3 mM, pH 5.5, relative to solvent control
T1 construct: purchased Aladdin
T1 sequence (P0DTQ4 1-620): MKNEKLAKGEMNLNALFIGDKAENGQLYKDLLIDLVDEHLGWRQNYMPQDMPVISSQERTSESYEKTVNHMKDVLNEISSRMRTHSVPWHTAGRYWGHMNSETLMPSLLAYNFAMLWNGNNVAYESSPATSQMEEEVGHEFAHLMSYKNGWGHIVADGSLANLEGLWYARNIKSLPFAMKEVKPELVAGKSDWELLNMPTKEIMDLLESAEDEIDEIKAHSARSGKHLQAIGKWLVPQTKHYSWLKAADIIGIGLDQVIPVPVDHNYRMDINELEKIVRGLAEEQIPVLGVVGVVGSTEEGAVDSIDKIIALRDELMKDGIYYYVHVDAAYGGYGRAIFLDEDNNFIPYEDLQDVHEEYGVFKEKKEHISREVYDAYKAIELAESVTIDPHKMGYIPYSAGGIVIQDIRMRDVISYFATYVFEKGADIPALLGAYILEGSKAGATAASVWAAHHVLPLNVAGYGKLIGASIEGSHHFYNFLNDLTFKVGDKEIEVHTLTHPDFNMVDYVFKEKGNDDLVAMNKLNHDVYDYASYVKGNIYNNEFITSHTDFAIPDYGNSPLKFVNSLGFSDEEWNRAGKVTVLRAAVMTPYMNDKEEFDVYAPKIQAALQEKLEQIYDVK
Procedure: as §6

MAO = tested on: MAO; parameters: method as in PMID 32099971; conditions: reported; cited from earlier work
E. faecalis [9] = assay: qPCR quantification of E. faecalis in feces of 6-OHDA-lesioned rats; assay type: in vivo, rat; conditions: PIP 10 and 20 mg/kg after 3 weeks, dose-dependent, combination vs L-dopa after 6 weeks
Procedure: as §1
(§7) Fecal microbial genomic DNA was extracted using the TIANamp Stool DNA Kit (TIANGEN). Plasmids containing the target sequences of E. faecalis 16 S rRNA and TDC were prepared (Figure S1A,B). Then, 10‐fold serial dilutions of plasmid were used as the templates to make the standard curves for absolute quantification. Quantitative PCR (qPCR) experiments were performed on 40 ng DNA in 20 μL reactions, following the amplification program: initial denaturation at 95°C for 15 min, 45 cycles of 95°C for 10 s, 58°C for 31 s, 72°C for 30 s, ended with a final extension at 72°C for 10 min. The absolute E. faecalis 16 S rRNA gene and TDC gene copies in fecal DNA samples were calculated based on the standard curves.

[10] = PIP 10 and 20 mg/kg, rats; cited from earlier work
TDC [11] = assay: qPCR quantification of TDC in feces of 6-OHDA-lesioned rats; assay type: in vivo, rat; conditions: PIP dose-dependent, after 3 weeks, vs 6-OHDA
Procedure: as §1, §7

6-OHDA-lesioned rats = assay: Open-field test in 6-OHDA-lesioned rats; assay type: in vivo, rat; conditions: L-dopa 60 mg/kg, PIP 20 mg/kg, once a day for 6 weeks
Procedure: Adaptively raised for 1 week, SD rats were randomly divided into two groups: the sham‐operated group (n = 6) and the 6‐OHDA‐lesioned group (n = 36). After deep anesthesia, the rats were stereotaxically injected with 3 μL 6‐OHDA (4 mg/mL in 0.02% ascorbic acid saline; Sigma) into the left striatum following our previously described protocol,[17] and the rats in sham group were injected with 3 μL vehicle (0.02% ascorbic acid saline).
as §1
Open‐field test was conducted on the 2nd day after the rotation test. The movements in 5 min of rats in open‐field apparatus (100 × 100 × 40 cm), including total movement distance (cm) and horizontal velocity (cm/s), were recorded by the TruScan Activity Monitoring System (USA). Abnormal involuntary movements (AIMs) were scored according to the rating system described in Lee's study.[22] […] Then, the dyskinesia behaviors of rats, including axial dystonia, reverse rotation, and limb and masticatory dyskinesia, were evaluated during a 1‐min monitoring period, repeated every 20 min for 2 h. […]

E. faecalis [12] = assay: qPCR of E. faecalis in feces of E. faecalis-transplanted rats; assay type: in vivo, rat; conditions: 1 week of administration, combination vs L-dopa alone
Procedure: as §7

TDC [13] = assay: TDC gene expression and specific activity in feces of E. faecalis-transplanted rats; assay type: in vivo, rat; conditions: 1 week of administration, combination vs L-dopa alone
Procedure: as §7, §5

DA in rat striatum = assay: Striatal DA content by HPLC-ECD in 6-OHDA-lesioned rats; assay type: in vivo; conditions: 6 weeks, L-dopa vs 6-OHDA, combination vs L-dopa alone in lesioned striatum

## O=C(/C=C/C=C/c1ccc2c(c1)OCO2)N1CCCCC1 [PIP, piperine]
[1]
  crossing of the blood-brain barrier: can cross
  tissue distribution: wide tissue distribution
[2]
  lesions of dopaminergic neurons (TH protein level in SN): efficiently attenuate the lesions
[3]; rat brain homogenate
  CR of L-dopa in brain homogenate: no significant difference
[3]; rat small intestine homogenate
  CR of L-dopa in small intestine homogenate: no significant difference
[3]; rat whole blood
  CR of L-dopa in blood: no significant difference
TDC in E. faecalis
  specific activity of TDC in E. faecalis: reduced
E. faecalis ATCC29212; PIP 10 μg/mL + L-dopa 0.3 mM
  decrease of CR of L-dopa: 17.22%
E. faecalis ATCC29212; PIP 20 μg/mL + L-dopa 0.3 mM
  decrease of CR of L-dopa: 32.01%
TDC [4]
  specific activity of TDC in feces (ELISA): significantly decrease
[5]; PIP 10 μg/mL + L-dopa 0.3 mM
  decrease of conversion rate (CR) of L-dopa: 17.02%
[5]; PIP 20 μg/mL + L-dopa 0.3 mM
  decrease of conversion rate (CR) of L-dopa: 27.55%
[6]
  gene expression of TDC in E. faecalis: reduced
[7]
  solubility: 250 µM (≈ 71.3 µg/mL)
[8]
  decrease in TDC activity: 20.95%
MAO
  MAO inhibition: potential to inhibit MAO activity
E. faecalis [9]
  abundance of E. faecalis in feces (qPCR): significantly reduce
[10]
  safety of the dosages used: safe
TDC [11]
  expression of TDC in feces (qPCR): significantly suppressive effect

## N[C@@H](Cc1ccc(O)c(O)c1)C(=O)O [L‐dopa, Levodopa]
6-OHDA-lesioned rats
  movement speed in open field: alleviate the bradykinesia
  total movement distance in open field: alleviate the bradykinesia
E. faecalis [12]
  abundance of E. faecalis in feces: no significant effect
TDC [13]
  expression of TDC in feces: upregulation
E. faecalis [9]
  abundance of E. faecalis in feces (qPCR): did not show a notable effect
DA in rat striatum
  DA level in striatum (HPLC-ECD): significantly increased
TDC [11]
  expression of TDC in feces (qPCR): further increased
